Earlier results in US4177261A, “Pharmaceutical composition and method of stimulating blood circulation and wound healing” (Thera Gesellschaft fur Patentverwertung mbH, priority 1977, dated 1979).
No end group written: not given here.

Details: intra-cuticular injection

**Q.** For “RPPGFSPFR [Brady kinin, (NH2) arginine-proline-proline-glycine-phenylalanine-serine-proline-phenylalanine-arginine (COOH)]”, which “Quantity causing vehement pain reactions” value is on record?
**A.** Its value is “about 0.1 micrograms per 1 milliliter of solution”.

**Q.** With “kallidin: decapeptide; Bradykinin extended at the amino end by an additional lysine radical” as the substance, how does the “Quantity causing vehement pain reactions” value read?
**A.** The value was “about 0.1 micrograms per 1 milliliter of solution”.
